Measurements reported in PMC9229919, “4-Aminoquinoline-Based Adamantanes as Potential Anticholinesterase Agents in Symptomatic Treatment of Alzheimer’s Disease” (Pharmaceutics, 2022).
Like-named read-outs stand apart in the source and are kept apart here.

Tests used:
[1] = biological target: T1, purified human BChE (Homo sapiens, UniProt P06276); assay: biochemical; assay type: biochemical
T1 construct: possibly also a gift of Dr Florian Nachon (the sentence is ambiguous)
Method in brief: (§1)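 Modified Ellman assay with acetylthiocholine and DTNB in 0.1 M sodium phosphate pH 7.4 (enzymes diluted with 0.1% BSA), ≤0.2% DMSO, 25 °C. At least three inhibitor concentrations per substrate level; Ki,app from Hunter–Downs equation, Ki from y-intercept and inhibition type from Ki,app vs [S].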

[2] = biological target: T2, recombinant human AChE (Homo sapiens, UniProt P22303); assay: biochemical; assay type: biochemical
T2 construct: gift of Dr Florian Nachon (Armed Forces Biomedical Research Institute, Brétigny-sur-Orge, France)
Method in brief: as §1

[3] = Ferric reducing antioxidant power (FRAP) assay; conditions: mean ± standard error of three experiments;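 further: expressed as µM Fe2+ equivalents from an FeSO4·7H2O standard curve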
Method in brief: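 Compounds at 10 and 100 µM were mixed with FRAP reagent (300 mM acetate buffer pH 3.6, TPTZ in HCl, FeCl3, 10:1:1) and incubated 60 min at 37 °C. Fe^2+-TPTZ formation read at 593 nm against a blank. Values derived from an Fe2SO4·7H2O standard curve, three independent experiments.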

[4] = Reverse-phase thin-layer chromatographic lipophilicity (RF, RM0); assay type: physicochemical; conditions: for RM0: intercept of RM = RM0 + bC; for b: slope of RM = RM0 + bC; for RF, Methanol/Water/Hydrochloric acid (conc.), mobile phase I / RF, Dioxane/Water/Hydrochloric acid (conc.), mobile phase II / RF, Methanol/Water/Hydrochloric acid (conc.), mobile phase II / RF, Acetone/Water/Hydrochloric acid (conc.), mobile phase III / RF, Dioxane/Water/Hydrochloric acid (conc.), mobile phase III / RF, Methanol/Water/Hydrochloric acid (conc.), mobile phase III / RF, Dioxane/Water/Hydrochloric acid (conc.), mobile phase IV / RF, Acetone/Water/Hydrochloric acid (conc.), mobile phase IV / RF, Methanol/Water/Hydrochloric acid (conc.), mobile phase IV / RF, Acetone/Water/Hydrochloric acid (conc.), mobile phase IX / RF, Methanol/Water/Hydrochloric acid (conc.), mobile phase IX / RF, Dioxane/Water/Hydrochloric acid (conc.), mobile phase V / RF, Acetone/Water/Hydrochloric acid (conc.), mobile phase V / RF, Methanol/Water/Hydrochloric acid (conc.), mobile phase V / RF, Dioxane/Water/Hydrochloric acid (conc.), mobile phase VI / RF, Acetone/Water/Hydrochloric acid (conc.), mobile phase VI / RF, Methanol/Water/Hydrochloric acid (conc.), mobile phase VI / RF, Acetone/Water/Hydrochloric acid (conc.), mobile phase VII / RF, Methanol/Water/Hydrochloric acid (conc.), mobile phase VII / RF, Acetone/Water/Hydrochloric acid (conc.), mobile phase VIII / RF, Methanol/Water/Hydrochloric acid (conc.), mobile phase VIII: RP-18 silica; for RF, Methanol/Water/Hydrochloric acid (conc.), mobile phase I: I = 90%MeOH/5%H2O/5%HCl; for RF, Dioxane/Water/Hydrochloric acid (conc.), mobile phase II: II = 80%Dioxane/15%H2O/5%HCl; for RF, Methanol/Water/Hydrochloric acid (conc.), mobile phase II: II = 85%MeOH/10%H2O/5%HCl; for RF, Acetone/Water/Hydrochloric acid (conc.), mobile phase III: III = 70%AC/25%H2O/5%HCl; for RF, Dioxane/Water/Hydrochloric acid (conc.), mobile phase III: III = 70%Dioxane/25%H2O/5%HCl; for RF, Methanol/Water/Hydrochloric acid (conc.), mobile phase III: III = 80%MeOH/15%H2O/5%HCl; for RF, Dioxane/Water/Hydrochloric acid (conc.), mobile phase IV: IV = 60%Dioxane/35%H2O/5%HCl; for RF, Acetone/Water/Hydrochloric acid (conc.), mobile phase IV: IV = 65%AC/30%H2O/5%HCl; for RF, Methanol/Water/Hydrochloric acid (conc.), mobile phase IV: IV = 75%MeOH/20%H2O/5%HCl; for RF, Acetone/Water/Hydrochloric acid (conc.), mobile phase IX: IX = 40%AC/55%H2O/5%HCl; for RF, Methanol/Water/Hydrochloric acid (conc.), mobile phase IX: IX = 50%MeOH/45%H2O/5%HCl; for RF, Dioxane/Water/Hydrochloric acid (conc.), mobile phase V: V = 50%Dioxane/45%H2O/5%HCl; for RF, Acetone/Water/Hydrochloric acid (conc.), mobile phase V: V = 60%AC/35%H2O/5%HCl; for RF, Methanol/Water/Hydrochloric acid (conc.), mobile phase V: V = 70%MeOH/25%H2O/5%HCl; for RF, Dioxane/Water/Hydrochloric acid (conc.), mobile phase VI: VI = 40%Dioxane/55%H2O/5%HCl; for RF, Acetone/Water/Hydrochloric acid (conc.), mobile phase VI: VI = 55%AC/40%H2O/5%HCl; for RF, Methanol/Water/Hydrochloric acid (conc.), mobile phase VI: VI = 65%MeOH/30%H2O/5%HCl; for RF, Acetone/Water/Hydrochloric acid (conc.), mobile phase VII: VII = 50%AC/45%H2O/5%HCl; for RF, Methanol/Water/Hydrochloric acid (conc.), mobile phase VII: VII = 60%MeOH/35%H2O/5%HCl; for RF, Acetone/Water/Hydrochloric acid (conc.), mobile phase VIII: VIII = 45%AC/50%H2O/5%HCl; for RF, Methanol/Water/Hydrochloric acid (conc.), mobile phase VIII: VIII = 55%MeOH/40%H2O/5%HCl
Method in brief: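 Reverse-phase TLC using mobile phases of methanol, acetone or dioxane with water and hydrochloric acid. Methanol varied in 10% steps; development distance 4.5 cm, ambient temperature (22±2 °C). RF measured and RM0 derived from retention.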

[5] = ± standard error, 25 °C, ATCh substrate, read-out: Ki BChE
[6] = ± standard error, 25 °C, ATCh substrate, read-out: Ki AChE
[7] = Acetone/Water/Hydrochloric acid (conc.)
[8] = Dioxane/Water/Hydrochloric acid (conc.)
[9] = Methanol/Water/Hydrochloric acid (conc.)

T1 sequence (P06276 29-602): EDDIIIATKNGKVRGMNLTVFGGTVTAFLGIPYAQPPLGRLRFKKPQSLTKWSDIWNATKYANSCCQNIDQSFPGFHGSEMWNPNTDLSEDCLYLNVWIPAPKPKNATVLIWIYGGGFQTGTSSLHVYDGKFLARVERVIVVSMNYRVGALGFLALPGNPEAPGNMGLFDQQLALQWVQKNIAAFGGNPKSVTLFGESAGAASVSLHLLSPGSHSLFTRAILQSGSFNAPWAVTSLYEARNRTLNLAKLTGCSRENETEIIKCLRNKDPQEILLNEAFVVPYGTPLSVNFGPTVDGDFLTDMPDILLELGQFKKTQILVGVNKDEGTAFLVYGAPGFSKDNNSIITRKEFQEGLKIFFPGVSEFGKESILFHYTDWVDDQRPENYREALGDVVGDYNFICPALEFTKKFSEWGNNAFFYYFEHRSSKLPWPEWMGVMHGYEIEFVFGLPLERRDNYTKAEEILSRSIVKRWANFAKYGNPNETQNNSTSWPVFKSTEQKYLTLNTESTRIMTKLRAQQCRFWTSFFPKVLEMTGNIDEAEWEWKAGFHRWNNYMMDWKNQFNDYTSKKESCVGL
T2 sequence (P22303 32-614): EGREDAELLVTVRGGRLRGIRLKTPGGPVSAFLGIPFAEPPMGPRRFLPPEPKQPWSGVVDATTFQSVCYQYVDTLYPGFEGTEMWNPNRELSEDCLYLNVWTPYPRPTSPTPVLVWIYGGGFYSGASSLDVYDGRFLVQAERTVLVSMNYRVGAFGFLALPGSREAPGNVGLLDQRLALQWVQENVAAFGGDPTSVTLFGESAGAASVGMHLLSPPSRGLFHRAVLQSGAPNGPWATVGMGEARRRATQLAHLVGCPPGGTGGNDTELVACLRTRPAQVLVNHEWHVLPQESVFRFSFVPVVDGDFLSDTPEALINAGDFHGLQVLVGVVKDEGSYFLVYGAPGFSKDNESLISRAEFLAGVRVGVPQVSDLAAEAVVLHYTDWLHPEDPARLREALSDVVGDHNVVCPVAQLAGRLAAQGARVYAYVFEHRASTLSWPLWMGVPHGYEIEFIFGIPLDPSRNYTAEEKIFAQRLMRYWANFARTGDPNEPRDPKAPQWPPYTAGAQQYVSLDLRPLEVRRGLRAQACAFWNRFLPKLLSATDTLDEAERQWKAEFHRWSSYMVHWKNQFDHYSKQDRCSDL

SMILES: CC(CCNCC12CC3CC(CC(C3)C1)C2)Nc1ccnc2cc(C(F)(F)F)ccc12 (stereo not drawn) [Compound 13]
- Ki ([1]; logarithm of Ki in µM, BChE, dependent variable of the QSAR model, read-out: Y Measured 2 log(ki)Bche, log (Ki/µM BChE) (converted)): 1.4 µM
- Ki [1, 5]: 1.8 ± 0.3 µM
- Ki ([2]; log (Ki/µM AChE), read-out: Y Measured 1 log(ki)Ache (converted)): 0.91 µM
- Ki [2, 6]: 0.91 ± 0.05 µM
- FRAP ([3]; 10 µM compound): 19 ± 7 µM
- FRAP ([3]; 100 µM compound): 64 ± 5 µM
- RM0 [4, 7]: 2.073
- b [4, 7]: 3.206
- RM0 [4, 8]: 0.9361
- b [4, 8]: 1.847
- RM0 [4, 9]: 2.626
- b [4, 9]: 3.42
- RF, Methanol/Water/Hydrochloric acid (conc.), mobile phase I [4]: 0.72
- RF, Dioxane/Water/Hydrochloric acid (conc.), mobile phase II [4]: 0.73
- RF, Methanol/Water/Hydrochloric acid (conc.), mobile phase II [4]: 0.66
- RF, Acetone/Water/Hydrochloric acid (conc.), mobile phase III [4]: 0.56
- RF, Dioxane/Water/Hydrochloric acid (conc.), mobile phase III [4]: 0.7
- RF, Methanol/Water/Hydrochloric acid (conc.), mobile phase III [4]: 0.5
- RF, Dioxane/Water/Hydrochloric acid (conc.), mobile phase IV [4]: 0.7
- RF, Acetone/Water/Hydrochloric acid (conc.), mobile phase IV [4]: 0.52
- RF, Methanol/Water/Hydrochloric acid (conc.), mobile phase IV [4]: 0.49
- RF, Acetone/Water/Hydrochloric acid (conc.), mobile phase IX [4]: 0.1
- RF, Methanol/Water/Hydrochloric acid (conc.), mobile phase IX [4]: 0.09
- RF, Dioxane/Water/Hydrochloric acid (conc.), mobile phase V [4]: 0.5
- RF, Acetone/Water/Hydrochloric acid (conc.), mobile phase V [4]: 0.4
- RF, Methanol/Water/Hydrochloric acid (conc.), mobile phase V [4]: 0.42
- RF, Dioxane/Water/Hydrochloric acid (conc.), mobile phase VI [4]: 0.33
- RF, Acetone/Water/Hydrochloric acid (conc.), mobile phase VI [4]: 0.34
- RF, Methanol/Water/Hydrochloric acid (conc.), mobile phase VI [4]: 0.34
- RF, Acetone/Water/Hydrochloric acid (conc.), mobile phase VII [4]: 0.3
- RF, Methanol/Water/Hydrochloric acid (conc.), mobile phase VII [4]: 0.22
- RF, Acetone/Water/Hydrochloric acid (conc.), mobile phase VIII [4]: 0.23
- RF, Methanol/Water/Hydrochloric acid (conc.), mobile phase VIII [4]: 0.14

SMILES: CC(CCNCCC12CC3CC(CC(C3)C1)C2)Nc1ccnc2cc(Cl)ccc12 (stereo not drawn) [Compound 14]
- preference for BChE ([1]; BChE over AChE): 10 times
- Ki [1, 5]: 0.15 ± 0.01 µM
- IS ([2]; IS = Ki(BChE)/Ki(AChE), IS > 1 selective to AChE): 0.1
- Ki [2, 6]: 1.9 ± 0.1 µM
- FRAP ([3]; 10 µM compound): 7.6 ± 2.3 µM
- FRAP ([3]; 100 µM compound): 86 ± 8 µM
- RM0 [4, 7]: 2.236
- b [4, 7]: 3.396
- RM0 [4, 8]: 1.306
- b [4, 8]: 2.3979
- RM0 [4, 9]: 3.293
- b [4, 9]: 4.124
- RF, Methanol/Water/Hydrochloric acid (conc.), mobile phase I [4]: 0.67
- RF, Dioxane/Water/Hydrochloric acid (conc.), mobile phase II [4]: 0.78
- RF, Methanol/Water/Hydrochloric acid (conc.), mobile phase II [4]: 0.62
- RF, Acetone/Water/Hydrochloric acid (conc.), mobile phase III [4]: 0.53
- RF, Dioxane/Water/Hydrochloric acid (conc.), mobile phase III [4]: 0.69
- RF, Methanol/Water/Hydrochloric acid (conc.), mobile phase III [4]: 0.45
- RF, Dioxane/Water/Hydrochloric acid (conc.), mobile phase IV [4]: 0.66
- RF, Acetone/Water/Hydrochloric acid (conc.), mobile phase IV [4]: 0.5
- RF, Methanol/Water/Hydrochloric acid (conc.), mobile phase IV [4]: 0.42
- RF, Acetone/Water/Hydrochloric acid (conc.), mobile phase IX [4]: 0.08
- RF, Methanol/Water/Hydrochloric acid (conc.), mobile phase IX [4]: 0.03
- RF, Dioxane/Water/Hydrochloric acid (conc.), mobile phase V [4]: 0.45
- RF, Acetone/Water/Hydrochloric acid (conc.), mobile phase V [4]: 0.38
- RF, Methanol/Water/Hydrochloric acid (conc.), mobile phase V [4]: 0.34
- RF, Dioxane/Water/Hydrochloric acid (conc.), mobile phase VI [4]: 0.27
- RF, Acetone/Water/Hydrochloric acid (conc.), mobile phase VI [4]: 0.33
- RF, Methanol/Water/Hydrochloric acid (conc.), mobile phase VI [4]: 0.25
- RF, Acetone/Water/Hydrochloric acid (conc.), mobile phase VII [4]: 0.25
- RF, Methanol/Water/Hydrochloric acid (conc.), mobile phase VII [4]: 0.16
- RF, Acetone/Water/Hydrochloric acid (conc.), mobile phase VIII [4]: 0.21
- RF, Methanol/Water/Hydrochloric acid (conc.), mobile phase VIII [4]: 0.1
